Laboratory results taken from US20240140933A1, “OXOINDOLINE COMPOUND FOR THE TREATMENT OF INFLAMMATORY DISEASES OR CANCER” (Hoffmann-La Roche Inc., priority 2021, published 2024).

molecular target: PDHK1 (Homo sapiens (Human), UniProt Q15118); test: PDHK1 enzymatic assay (AlphaScreen, phosphorylation of PDHE1 S293); format: biochemical; settings: 1 nM PDHK1, 25 nM PDHE1, 20 μM ATP, 30° C. for 45 minutes
Source text: Pyruvate dehydrogenase complex (PDHc) is an enzyme that catalyzes the reaction of pyruvate and a lipoamide to give the acetylated dihydrolipoamide and carbon dioxide. PDHc has three subunits E1, E2 and E3. E1 has 3 serine phosphorylation sites S293, S232, S300. If E1 was phosphorylated, PDH will be inactivated. PDHK can phosphorylate PDH protein (also named PDHE1) in PDH complex (PDC) to inactivate it.

Sequence of PDHK1 (Q15118 29-436): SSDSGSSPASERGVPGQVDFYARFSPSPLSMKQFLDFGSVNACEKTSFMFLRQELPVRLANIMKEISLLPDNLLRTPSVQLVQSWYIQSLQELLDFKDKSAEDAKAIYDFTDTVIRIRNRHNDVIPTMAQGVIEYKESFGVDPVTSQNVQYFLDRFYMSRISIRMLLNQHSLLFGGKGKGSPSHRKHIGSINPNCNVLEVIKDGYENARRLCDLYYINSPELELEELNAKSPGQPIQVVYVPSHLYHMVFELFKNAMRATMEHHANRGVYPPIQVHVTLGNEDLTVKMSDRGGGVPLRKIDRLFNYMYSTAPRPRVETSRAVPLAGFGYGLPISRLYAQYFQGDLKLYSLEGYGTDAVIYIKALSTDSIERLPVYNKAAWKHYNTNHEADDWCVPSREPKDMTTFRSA

SMILES | Enzymatic IC50 against PDHK1 [µg/mL]
CCNc1cc(F)cc2c1NC(=O)C2(C)N1CCC[C@@H](Nc2ccc(C(=O)CO)cc2)C1 (stereo partly drawn) [Example 19, 7-(ethylamino)-5-fluoro-3-[(3R)-3-[4-(2-hydroxyacetyl)anilino]-1-piperidyl]-3-methyl-indolin-2-one] | 0.016
CCNc1cc(F)cc2c1NC(=O)C2(C)N1C[C@@H](F)C[C@@H](Nc2ccc(C#N)nc2)C1 (stereo partly drawn) [Example 46, 5-[[(3R,5S)-1-[7-(ethylamino)-5-fluoro-3-methyl-2-oxo-indolin-3-yl]-5-fluoro-3-piperidyl]amino]pyridine-2-carbonitrile] | 0.012
CCNc1cc(F)cc2c1NC(=O)C2(C)N1CCC[C@@H](Oc2ccc(O)c(C=O)c2)C1 (stereo partly drawn) [Example 2, 5-[[(3R)-1-[7-(ethylamino)-5-fluoro-3-methyl-2-oxo-indolin-3-yl]-3-piperidyl]oxy]-2-hydroxy-benzaldehyde] | 0.015
C=CS(=O)(=O)N[C@H]1CN(C2(C)C(=O)Nc3c(NCC)cc(F)cc32)CC[C@@H]1c1ccccc1 (stereo partly drawn) [Example 53, N-[(3R,4R)-1-[7-(ethylamino)-5-fluoro-3-methyl-2-oxo-indolin-3-yl]-4-phenyl-3-piperidyl]ethenesulfonamide] | 0.015
CCNc1cc(F)cc2c1NC(=O)C2(C)N1CCC[C@@H](Nc2cnc(C#N)cn2)C1 (stereo partly drawn) [Example 15, 5-[[(3R)-1-[7-(ethylamino)-5-fluoro-3-methyl-2-oxo-indolin-3-yl]-3-piperidyl]amino]pyrazine-2-carbonitrile] | 0.060
CCNc1cc(F)cc2c1NC(=O)C2(C)N1CC[C@H](c2ccccc2Oc2ccc(C#N)cc2)[C@@H](NC(C)=O)C1 (stereo partly drawn) [Example 58, N-[(3R,4R)-4-[2-(4-cyanophenoxy)phenyl]-1-[7-(ethylamino)-5-fluoro-3-methyl-2-oxo-indolin-3-yl]-3-piperidyl]acetamide] | 0.03
CCNc1cc(F)cc2c1NC(=O)C2(C)N1CCC[C@@H](Nc2ccc(OS(=O)(=O)F)nc2)C1 (stereo partly drawn) [Example 33, 7-(ethylamino)-5-fluoro-3-methyl-2-oxo-3-[(3R)-3-[(6-fluorosulfonyloxy-3-pyridyl)amino]-1-piperidyl]indoline] | 0.068
CCNc1cc(F)cc2c1NC(=O)C2(C)N1CCC[C@@H](Nc2ccc(C(N)=O)nc2)C1 (stereo partly drawn) [Example 12, 5-[[(3R)-1-[7-(ethylamino)-5-fluoro-3-methyl-2-oxo-indolin-3-yl]-3-piperidyl]amino]pyridine-2-carboxamide] | 0.062
CCNc1cc(F)cc2c1NC(=O)C2(C)N1CC[C@H](F)[C@@H](Nc2ccc(C#N)nc2)C1 (stereo partly drawn) [Example 48, 5-[[(3S,4S)-1-[7-(ethylamino)-5-fluoro-3-methyl-2-oxo-indolin-3-yl]-4-fluoro-3-piperidyl]amino]pyridine-2-carbonitrile] | 0.025
CCNc1cc(F)cc2c1NC(=O)C2(C)N1CC[C@H](O)[C@@H](Nc2ccc(C#N)nc2)C1 (stereo partly drawn) [Example 50, 5-[[(3S,4S)-1-[7-(ethylamino)-5-fluoro-3-methyl-2-oxo-indolin-3-yl]-4-hydroxy-3-piperidyl]amino]pyridine-2-carbonitrile] | 0.014
CCNc1cc(F)cc2c1NC(=O)C2(C)N1CCC[C@@H](NC(=O)c2cccc(S(=O)(=O)F)c2)C1 (stereo partly drawn) [Example 42, 3-[[(3R)-1-[7-(ethylamino)-5-fluoro-3-methyl-2-oxo-indolin-3-yl]-3-piperidyl]carbamoyl]benzenesulfonyl fluoride] | 0.020
CCNc1cc(F)cc2c1NC(=O)C2(C)N1CCC[C@@H](Nc2ccc(OS(=O)(=O)F)cc2)C1 (stereo partly drawn) [Example 32, 7-(ethylamino)-5-fluoro-3-methyl-2-oxo-3-[(3R)-3-(4-fluorosulfonyloxyanilino)-1-piperidyl]indoline] | 0.135
CCNc1cc(F)cc2c1NC(=O)C2(C)N1CCC[C@@H](Cc2ccc(C(N)=O)cc2)C1 (stereo partly drawn) [Example 6, 4-[[(3S)-1-[7-(ethylamino)-5-fluoro-3-methyl-2-oxo-indolin-3-yl]-3-piperidyl]methyl]benzamide] | 0.143
CCNc1cc(F)cc2c1NC(=O)C2(C)N1CCC[C@@H](N(C)c2ccc(C(N)=O)nc2)C1 (stereo partly drawn) [Example 24, 5-[[(3R)-1-[7-(ethylamino)-5-fluoro-3-methyl-2-oxo-indolin-3-yl]-3-piperidyl]-methyl-amino]pyridine-2-carboxamide] | 0.016
CCNc1cc(F)cc2c1NC(=O)C2(C)N1CCC[C@@H](Nc2ccc(S(=O)(=O)F)c(OC)c2)C1 (stereo partly drawn) [Example 28, 4-[[(3R)-1-[7-(ethylamino)-5-fluoro-3-methyl-2-oxo-indolin-3-yl]-3-piperidyl]amino]-2-methoxy-benzenesulfonyl fluoride] | 0.032
CCNc1cc(F)cc2c1NC(=O)C2(C)N1CCC[C@@H](Nc2ccc(S(=O)(=O)F)cn2)C1 (stereo partly drawn) [Example 29, 6-[[(3R)-1-[7-(ethylamino)-5-fluoro-3-methyl-2-oxo-indolin-3-yl]-3-piperidyl]amino]pyridine-3-sulfonyl fluoride] | 0.035
CCNc1cc(F)cc2c1NC(=O)C2(C)N1CCC[C@@H](Cc2ccc(C(=O)O)cc2)C1 (stereo partly drawn) [Example 5, 4-[[(3S)-1-[7-(ethylamino)-5-fluoro-3-methyl-2-oxo-indolin-3-yl]-3-piperidyl]methyl]benzoic acid] | 0.046
CCNc1cc(F)cc2c1NC(=O)C2(C)N1CC[C@H](c2ccccc2)[C@@H](NC(C)=O)C1 (stereo partly drawn) [Example 52, N-[(3R,4R)-1-[7-(ethylamino)-5-fluoro-3-methyl-2-oxo-indolin-3-yl]-4-phenyl-3-piperidyl]acetamide] | 0.020
C=CS(=O)(=O)c1ccc(N[C@@H]2CCCN(C3(C)C(=O)Nc4c(NCC)cc(F)cc43)C2)cc1 (stereo partly drawn) [Example 34, 7-(ethylamino)-5-fluoro-3-methyl-3-[(3R)-3-(4-vinylsulfonylanilino)-1-piperidyl]indolin-2-one] | 0.032
CCNc1cc(F)cc2c1NC(=O)C2(C)N1CCC[C@@H](Nc2ccc(O)nc2)C1 (stereo partly drawn) [Example 21, 7-(ethylamino)-5-fluoro-3-[(3R)-3-[(6-hydroxy-3-pyridyl)amino]-1-piperidyl]-3-methyl-indolin-2-one] | 0.037
CCNc1cc(F)cc2c1NC(=O)C2(C)N1CC[C@@H](O)[C@@H](Nc2ccc(C#N)nc2)C1 (stereo partly drawn) [Example 51, 5-[[(3S,4R)-1-[7-(ethylamino)-5-fluoro-3-methyl-2-oxo-indolin-3-yl]-4-hydroxy-3-piperidyl]amino]pyridine-2-carbonitrile] | 0.017
CCNc1cc(F)cc2c1NC(=O)C2(C)N1CCC[C@@H](Nc2cnc(C#N)c(Cl)c2)C1 (stereo partly drawn) [Example 22, 3-chloro-5-[[(3R)-1-[7-(ethylamino)-5-fluoro-3-methyl-2-oxo-indolin-3-yl]-3-piperidyl]amino]pyridine-2-carbonitrile] | 0.024
CCNc1cc(F)cc2c1NC(=O)C2(C)N1CCC[C@@H](Nc2ccc(CO)nc2)C1 (stereo partly drawn) [Example 18, 7-(ethylamino)-5-fluoro-3-[(3R)-3-[[6-(hydroxymethyl)-3-pyridyl]amino]-1-piperidyl]-3-methyl-indolin-2-one] | 0.059
CCNc1cc(F)cc2c1NC(=O)C2(C)N1CCC[C@@H](Nc2ccc(S(C)(=O)=O)nc2)C1 (stereo partly drawn) [Example 20, 7-(ethylamino)-5-fluoro-3-methyl-3-[(3R)-3-[(6-methylsulfonyl-3-pyridyl)amino]-1-piperidyl]indolin-2-one] | 0.038
CCNc1cc(F)cc2c1NC(=O)C2(C)N1CCC[C@@H](NC(=O)C2CCS(=O)(=O)CC2)C1 (stereo partly drawn) [Example 36, N-[(3R)-1-[7-(ethylamino)-5-fluoro-3-methyl-2-oxo-indolin-3-yl]-3-piperidyl]-1,1-dioxo-thiane-4-carboxamide] | 0.047

same assay, conditions: 1 nM PDHK1, 25 nM PDHE1, 20 μM ATP, 30° C. for 45 minutes; read-out: Enzymatic IC50 against PDHK1 (converted)

SMILES | IC50 [nM]
CCNc1cc(F)cc2c1NC(=O)[C@@]2(C)N1CCC[C@@H](Oc2ccc(S(=O)(=O)F)c(OC)c2)C1 [Example 4B, 4-[[(3R)-1-[(3S)-7-(ethylamino)-5-fluoro-3-methyl-2-oxo-indolin-3-yl]-3-piperidyl]oxy]-2-methoxy-benzenesulfonyl fluoride] | 109
CCNc1cc(F)cc2c1NC(=O)[C@@]2(C)N1CCC[C@@H](Oc2ccc(C(=O)O)c(Cl)c2)C1 [Example 1B, 2-chloro-4-[[(3R)-1-[(3S)-7-(ethylamino)-5-fluoro-3-methyl-2-oxo-indolin-3-yl]-3-piperidyl]oxy]benzoic acid] | 15.2
CCNc1cc(F)cc2c1NC(=O)[C@@]2(C)N1CC[C@@H](c2ccccc2)[C@@H](C(=O)Nc2ccccc2)C1 [Example 61B, (3R,4R)-1-[(3S)-7-(ethylamino)-5-fluoro-3-methyl-2-oxo-indolin-3-yl]-N,4-diphenyl-piperidine-3-carboxamide] | 47.3
CCNc1cc(F)cc2c1NC(=O)C2(C)N1CCC[C@@H](Cc2ccc(C#N)cc2)C1 (stereo partly drawn) [Example 7, 4-[[(3S)-1-[7-(ethylamino)-5-fluoro-3-methyl-2-oxo-indolin-3-yl]-3-piperidyl]methyl]benzonitrile] | 379
CCNc1cc(F)cc2c1NC(=O)[C@@]2(C)N1CC[C@@H](c2ccccc2)[C@@H](C(=O)NCc2ccccc2)C1 [Example 62B, (3R,4R)-N-benzyl-1-[(3S)-7-(ethylamino)-5-fluoro-3-methyl-2-oxo-indolin-3-yl]-4-phenyl-piperidine-3-carboxamide] | 75.9
